Experimental data from paper PMC11266212, “Effect of Clarithromycin, a Strong CYP3A and P-glycoprotein Inhibitor, on the Pharmacokinetics of Edoxaban in Healthy Volunteers and the Evaluation of the Drug Interaction with Other Oral Factor Xa Inhibitors by a Microdose Cocktail Approach” (Cardiovascular Drugs and Therapy, 2023).
Read-outs that look alike come from different tables or passages of the source.

How the values were obtained:
CYP = settings: cited from earlier work
[1] = Pharmacokinetics of a microdosed FXaI cocktail before and during clarithromycin; settings: for GMR of dose-normalized AUC0-∞, microdose vs therapeutic dose: edoxaban 50 μg vs 60 mg; for AUC: AUC0-∝
Procedure: (§1) The study was an open-label, two-period, one-sequence DDI trial in healthy volunteers to assess the impact of clarithromycin on the pharmacokinetics of 60 mg edoxaban, given as a tablet, and the effect of clarithromycin on apixaban (25 μg), edoxaban (50 μg), and rivaroxaban (25 μg) administered as an oral microdose cocktail. Concurrently, the effect of clarithromycin on CYP3A activity was quantified by means of an oral midazolam microdose (30 μg) (Fig. 1).
(§2) CYP3A4 activity was quantified using a microdose of midazolam administered as an oral solution, which was administered directly before administering the FXaI [19, 20]. Clarithromycin was dosed to inhibition steady-state (7-day treatment prior to evaluation of any perpetrator effects and treatment continued until last blood sampling) and administered at a dose of 500 mg b.i.d. to ensure reliable inhibition of hepatic CYP3A4 (mechanism-based inhibition), while maximum CYP3A4 inhibition in the gut wall was expected to occur earlier. Single-dose pharmacokinetics of the FXaI were assessed at baseline and on day 8 (microdosed FXaI cocktail) and day 9 (edoxaban 60 mg) of clarithromycin treatment.
(§3) Venous plasma samples for pharmacokinetic FXaI analyses were collected before and 0.25, 0.5, 0.75, 1, 1.5, 2, 2.5, 3, 3.5, 4, 5, 6, 8, 10, 12, 24 (last sampling after microdoses), and 48 h (last sampling for edoxaban 60 mg) after drug administration. Midazolam pharmacokinetics were assessed using a limited sampling strategy with sampling at 2, 2.5, 3, and 4 h post dose. All samples were processed within 20 min, and plasma was stored at ≤ – 20 °C until analysis. Coagulation effects (international normalized ratio (INR) and activated partial thromboplastin time (aPTT)) were assessed at expected FXaI peak plasma concentrations (3 h post dose) in the accredited central laboratory of the hospital.
(§4) Apixaban, edoxaban, midazolam, and rivaroxaban plasma concentrations were quantified using validated highly sensitive ultra-performance liquid chromatography–tandem mass spectrometry (UPLC-MS/MS) methods with accuracy and precision values of less than or equal to ± 15 % [22, 23]. The corresponding lower limits of quantification were 1 pg/ml for microdosed midazolam, 2.5 pg/ml for all microdosed FXaI, and 1 ng/ml for regular doses of edoxaban.
(§5) Non-compartmental analyses of the FXaI and midazolam pharmacokinetics were performed using Phoenix WinNonlin 8.3 (Certara, Inc., Princeton, NJ, USA). Linear modelling of AUC ratios was done using the R software environment in version 4.0.4 (R Foundation for Statistical Computing, Vienna, Austria). Maximum plasma concentration (Cmax) and the time to reach Cmax (Tmax) were directly obtained from the pharmacokinetic data. The area under the concentration-time curve from 0 to infinity (AUC0-∞) was determined using the log-linear trapezoidal rule and by adding the extrapolated part until infinity. Half-life (t1/2) is calculated as ln(2)/λz , where the elimination rate constant λz was estimated using log-linear regression of the elimination phase. The apparent oral clearance (Cl/F) was calculated as dose/AUC0--∞ . CYP3A4 activity was determined using a limited sampling strategy using the midazolam AUC2-4 as described earlier. […] Exposure changes are described by evaluating the geometric mean ratio (paired t-test on log-transformed values) of AUC0-∞ and Cmax at baseline and under the influence of steady-state clarithromycin (90 % CI). The AUC2-4 of midazolam was evaluated at multiple time points using a repeated-measures analysis of variance after logarithmic transformation.

[2] = cited from earlier work
[3] = Pharmacokinetics of a single 60 mg edoxaban dose before and during clarithromycin; settings: for Tmax / Vd: geometric mean; for Vd: Vz
Procedure: as §1, §2, §3, §4, §5

[4] = system: coagulation markers (aPTT, INR); assay: Coagulation effects (aPTT, INR) 3 h post dose; format: in vivo, human (healthy volunteers); settings: for INR, mean / aPTT, mean: 180 min after administration
Procedure: as §3

P-gp = system: P-gp; set-up: method as in PMID 12848773, PMID 18987624; settings: digoxin given intravenously and orally; cited from earlier work
[5] = cited from earlier work; remark: listed apart in the source
[6] = Safety: adverse events in the trial; format: in vivo, human (healthy volunteers); settings: while taking clarithromycin 500 mg b.i.d.; 12 participants
[7] = set-up: method as in PMID 32511684; settings: during clarithromycin compared to azithromycin, patients mainly anticoagulated with FXaI; cited from earlier work
CYP3A = CYP3A activity by oral midazolam microdose (AUC2-4, limited sampling); format: in vivo, human (healthy volunteers); settings: human, plasma, 30 ug, oral microdose 30 μg
Procedure: as §1
CYP3A4 activity was quantified using a microdose of midazolam administered as an oral solution, which was administered directly before administering the FXaI [19, 20]. […] Single-dose pharmacokinetics of the FXaI were assessed at baseline and on day 8 (microdosed FXaI cocktail) and day 9 (edoxaban 60 mg) of clarithromycin treatment.
as §3, with “All samples were processed within 20 min, and plasma was stored at ≤ – 20 °C until analysis.” left out, “hospital. […]” for “hospital.”

[8] = oral microdose cocktail, at clarithromycin steady-state
[9] = oral microdose cocktail, baseline
[10] = oral microdose cocktail, clarithromycin steady state vs baseline
[11] = edoxaban 60 mg, clarithromycin steady state vs baseline
[12] = human, in vivo, 60 mg, edoxaban 60 mg, at clarithromycin steady-state
[13] = human, in vivo, 60 mg, edoxaban 60 mg, baseline
[14] = edoxaban 60 mg with clarithromycin
[15] = human, in vivo, po, geometric mean
[16] = regular apixaban dose with clarithromycin, ref 24 (Garonzik et al. 2019)
[17] = regular rivaroxaban dose with clarithromycin, ref 16 (Mueck et al. 2013)

CN1CCc2nc(C(=O)N[C@@H]3C[C@@H](C(=O)N(C)C)CC[C@@H]3NC(=O)C(=O)Nc3ccc(Cl)cn3)sc2C1 [Edoxaban, edoxaban]
contribution of CYP3A to the overall metabolic clearance (CYP): 1%
GMR of dose-normalized AUC0-∞, microdose vs therapeutic dose ([1]; at baseline): 1.08
GMR of dose-normalized AUC0-∞, microdose vs therapeutic dose ([1]; at steady-state of clarithromycin): 1.43
AUC ([1]; human, in vivo, po, geometric mean, oral microdose cocktail (25 μg apixaban, 50 μg edoxaban, 25 μg rivaroxaban), baseline): 1.05 ng·h/mL
AUC ([1]; human, in vivo, po, geometric mean, oral microdose cocktail, at steady-state clarithromycin (day 8)): 2.13 ng·h/mL
Cmax ([1]; human, in vivo, po, geometric mean, oral microdose cocktail, at steady-state clarithromycin): 0.341 ng/mL
Cmax ([1]; human, in vivo, po, geometric mean, oral microdose cocktail, baseline): 0.153 ng/mL
Tmax ([1]; human, in vivo, po, Tmax, geometric mean, oral microdose cocktail, at clarithromycin steady-state): 1.72 h
Tmax ([1]; human, in vivo, po, Tmax, geometric mean, oral microdose cocktail, baseline): 1.17 h
Cl / F, geometric mean [1, 8]: 23 L/h
Vz, geometric mean [1, 8]: 217 L
Cl / F, geometric mean [1, 9]: 48 L/h
Vz, geometric mean [1, 9]: 399 L
AUC0-∝ geometric mean ratio [1, 10]: 2.03
Cmax geometric mean ratio [1, 10]: 2.22
effect of selective inhibition of CYP3A (by voriconazole) on pharmacokinetics [2]: does not affect its pharmacokinetics
exposure change with ketoconazole ([2]; therapeutic dose of edoxaban): 87%
increase of edoxaban exposure by clarithromycin ([3]; edoxaban 60 mg): 53%
Cl / F, geometric mean ([3]; edoxaban 60 mg, at clarithromycin steady-state): 34 L/h
Cmax, geometric mean ([3]; edoxaban 60 mg, at steady-state clarithromycin): 258 ng/mL
Cl / F, geometric mean ([3]; edoxaban 60 mg, baseline): 51 L/h
AUC0-∝ geometric mean ratio [3, 11]: 1.53
Cmax geometric mean ratio [3, 11]: 1.27
Cmax ([3]; human, in vivo, 60 mg): 203 ng/mL
Tmax [3, 12]: 1.67 h
Tmax [3, 13]: 1.27 h
Vd [3, 12]: 361 L
Vd [3, 13]: 594 L
AUC ([3]; human, in vivo, po, 60 mg): 1170 ng·h/mL
INR, change during clarithromycin, GMR ([4]; edoxaban 60 mg): 1.39
INR, mean ([4]; edoxaban 60 mg alone): 1.23
aPTT, mean ([4]; edoxaban 60 mg alone): 33.4
INR, mean [4, 14]: 1.43
aPTT, mean [4, 14]: 40.2

C[C@H]1O[C@@H](O[C@H]2[C@@H](O)C[C@H](O[C@H]3[C@@H](O)C[C@H](O[C@H]4CC[C@@]5(C)[C@H](CC[C@@H]6[C@@H]5C[C@@H](O)[C@]5(C)[C@@H](C7=CC(=O)OC7)CC[C@]65O)C4)O[C@@H]3C)O[C@@H]2C)C[C@H](O)[C@@H]1O [digoxin]
reduction of renal tubular secretion by oral clarithromycin (P-gp): 15%

COc1ccc(-n2nc(C(N)=O)c3c2C(=O)N(c2ccc(N4CCCCC4=O)cc2)CC3)cc1 [Apixaban, apixaban]
CYP contribution to overall clearance (CYP): 21%
Cl / F, geometric mean ([1]; human, in vivo, po): 4.9 L/h
Vz, geometric mean ([1]; human, in vivo, po): 52 L
t1/2, geometric mean ([1]; human, in vivo, po): 7.1 h
Cmax [1, 15]: 0.653 ng/mL
Tmax, geometric mean [1, 8]: 2.23 h
Tmax, geometric mean [1, 9]: 1.9 h
exposure increase caused by verapamil or diltiazem [2]: approximately 40%
exposure change with ketoconazole ([2]; therapeutic dose of apixaban): 99%
increase of concentrations (exposure) by clarithromycin ([5]; apixaban): 60%
AUC0-∝ geometric mean ratio [5, 16]: 1.60
Cmax geometric mean ratio [5, 16]: 1.30

CC[C@H]1OC(=O)[C@H](C)[C@@H](O[C@H]2C[C@@](C)(OC)[C@@H](O)[C@H](C)O2)[C@H](C)[C@@H](O[C@@H]2O[C@H](C)C[C@H](N(C)C)[C@H]2O)[C@](C)(OC)C[C@@H](C)C(=O)[C@H](C)[C@@H](O)[C@]1(C)O [clarithromycin]
adverse event dysgeusia, number of participants [6]: 9
increase of the risk of hospital admission due to major bleeding events [7]: 71%

O=C(NC[C@H]1CN(c2ccc(N3CCOCC3=O)cc2)C(=O)O1)c1ccc(Cl)s1 [Rivaroxaban, rivaroxaban]
CYP contribution to overall clearance (CYP): 32%
Cl / F, geometric mean ([1]; human, in vivo, po): 9.0 L/h
Tmax ([1]; human, in vivo, po): 0.917 h
Vz, geometric mean ([1]; human, in vivo, po): 85 L
t1/2, geometric mean ([1]; human, in vivo, po): 6.3 h
Cmax [1, 15]: 0.65 ng/mL
exposure increase caused by verapamil or diltiazem [2]: approximately 40%
exposure change with ketoconazole ([2]; therapeutic dose of rivaroxaban): 158%
AUC0-∝ geometric mean ratio [5, 17]: 1.54
Cmax geometric mean ratio [5, 17]: 1.40
increase of concentrations (exposure) by clarithromycin ([5]; rivaroxaban): 50–100%
magnitude of drug interaction (exposure increase) with clarithromycin ([5]; therapeutic doses of rivaroxaban): 54%

Cc1ncc2n1-c1ccc(Cl)cc1C(c1ccccc1F)=NC2 [Midazolam, midazolam]
AUC (CYP3A; at clarithromycin steady-state): 0.672 ng·h/mL
AUC (CYP3A; baseline): 0.107 ng·h/mL
